# Results: US8841325B2, “Immunomodulatory compounds for the restoration of vitamin D sensitivity in vitamin D resistant tumor cells” (Celgene Corporation, priority 2009, dated 2014)
# Assays:
# Type in all cases: cell-based
# MCF-12A cells [1] = assay: Cell growth by Sulphorhodamine B (SRB) assay, MCF-12A; details: single agent, up to 6 days, Thalidomide 0.01-100 μM, CC-4047 and lenalidomide 0.001-10 μM, FIG. 6B
# Description: (§1) Cells were seeded in 24 wells plates at a density of 10^4 cells per well and allowed to adhere for 24 hours. […] Each treatment was carried out for up to 7 days, but renewed every 2 days. Cell growth was then determined by Sulphorhodamine B (SRB) assay, measuring absorbance at 550 nm.
# (§2) After 6 days treatment, cells were seeded in 24 well plates at a density of 1×10^4 cells/well. After 24 h cells were treated with reagents or vehicle for up to six days. Cells were treated for up to 6 days with log doses of Thalidomide (0.1 μM up to 100 μM), pomalidomide and lenalidomide (0 μM up to 10 μM). At the end of each experiment, cells were fixed to the bottom of the well by addition of ice-cold 50% w/v trichloroacetic acid (TCA) to give a final concentration of 10% TCA. Plates were incubated at 4° C. for 30 minutes and then washed with distilled water. Plates were allowed to air-dry at room temperature before staining with 0.4% w/v SRB in 1% v/v acetic acid and incubated for 15 minutes on a shaker. The plates were then extensively washed with 1% acetic acid to remove unbound dye and were again allowed to air-dry at room temperature. Incorporated dye was solubilised with 200 μl […] Tris base. 100 μl aliquots were transferred to a 96 well plate and absorbance at 550 nm was determined
# MCF-7 cells [2] = assay: Cell viability by neutral red assay, MCF-7; details: single agent, up to 6 days, Thalidomide 0.01-100 μM, CC-4047 and lenalidomide 0.001-10 μM, FIG. 6A
# Description: (§3) Cells were seeded in 24 wells plates at a density of 10^4 cells per well and allowed to adhere for 24 hours. […] The drug was renewed every 2 days. Cell viability was then determined by neutral red assay, measuring absorbance at 550 nm.
# (§4) After 6 days treatment, cells were seeded into 24 well plates at a density of 1×10^4 cells/wells. After 24 h, cells were treated with reagents or vehicle for up to six days. At the end of the incubation period, medium was removed and cells were incubated with neutral red solution (40 μg/ml in phenol red and serum free DMEM) for 2 h at 37° C. After removal of the neutral red solution, wells were rinsed once with 1 ml 4% formal saline containing 0.5% CaCl2. Plates were inverted on paper towel to drain and 200 μl of elution fluid (1% acetic acid in 50% ethanol) was added. Following incubation at room temperature for 30 min with gentle shaking, absorbance at 550 nm was determined
# MCF-12A cells [3] = assay: Cell viability by neutral red assay, MCF-12A; details: single agent, up to 6 days, Thalidomide 0.01-100 μM, CC-4047 and lenalidomide 0.001-10 μM, FIG. 6A
# Description: as §3, §4
# MCF-7 cells [4] = assay: Cell growth by Sulphorhodamine B (SRB) assay, MCF-7; details: single agent, up to 6 days, Thalidomide 0.01-100 μM, CC-4047 and lenalidomide 0.001-10 μM, FIG. 6B
# Description: as §1, §2
# MDA-MB-231 cells [5] = assay: Cell viability by neutral red assay, MDA-MB-231; details: for effect on cell viability: single agent, up to 6 days, Thalidomide 0.01-100 μM, CC-4047 and lenalidomide 0.001-10 μM, FIG. 6A
# Description: as §3, §4
# (§5) To accomplish this, cells were treated for up to 6 days with different concentrations of a BCL-2 inhibitor, ABT-263 ([…]). Non-treated cells were used as a control. After 6 days of treatment, cell viability was measured by neutral red assay (FIG. 16). In the three cell lines, BCL-2 inhibition leads to cell death. The IC50 is almost equivalent in all cell lines (1 μM+/−0.2 μM).
# (§6) More particularly, FIG. 16 illustrates the effects of BCL-2 inhibition on MCF-7VD^R and HBL-100 viability. MDA-MB-231, MCF-7/VD^R and HBL-100 cells were treated for up to 6 days with different concentrations of ABT-263 (0.2 up to 20 μM). Non-treated cells were used as a control. After 6 days of treatment, cell viability was measured by neutral red assay. Results are mean of three independent experiments (each made in quadruplicate).
# MDA-MB-231 cells [6] = assay: Cell growth by Sulphorhodamine B (SRB) assay, MDA-MB-231
# Description: (§7) Cells were seeded in 24 wells plates at a density of 10^4 cells per well and allowed to adhere for 24 hours. To determine the combination effects of the drugs, cells were treated with 100 nM 1,25 D3 and 10 nM 1-oxo-2-(2,6-dioxopiperidin-3-yl)-4-aminoisoindoline or 1,3-dioxo-2-(2,6-dioxopiperidin-3-3-yl)-4-aminoisoindoline. Each treatment was carried out for up to 7 days, but renewed every 2 days. Cell growth was then determined by Sulphorhodamine B (SRB) assay, measuring absorbance at 550 nm.
# as §7, with “per wekk” for “per well”, “and varying doses of” for “and 10 nM”, “or 1,3-dioxo-2-(2,6-dioxopiperidin-3-yl)-4-aminoisoindoline.” for “or 1,3-dioxo-2-(2,6-dioxopiperidin-3-3-yl)-4-aminoisoindoline.”
# as §2
# HBL-100 cells = assay: Cell viability by neutral red assay, HBL-100; details: Homo sapiens, HBL-100, 144 h; ABT-263, 6 days, FIG. 16; read-out: IC50 (cell viability / killing)
# Description: as §4
# In order to validate the previous results obtained in MDA-MB-231 cells, two other vitamin D resistant cell lines MCF-7/VD^R and HBL-100 cells, were investigated. First the effect of lenalidomide on these cells lines were investigated. To this end, cells were treated for up to 6 days with different concentrations of lenalidomide (0 μM up to 10 μM). Cell viability was measured by neutal red dye assay (FIG. 13).
# (§8) More particularly, FIG. 13 illustrates the effects of lenalidomide treatment on MCF-7/VDR and HBL-100 viability. MCF-7/VDR and HBL-100 cells were treated for up to 6 days with different concentrations of lenalidomide (0 μM up to 10 μM). Cell viability was measured by neutral red dye assay. Results are mean of three independent experiments (each made in quadruplicate).
# Cell viability was measured by neutral red dye assay (FIG. 14).
# as §8, with “14” for “13”, “lenalidomide/1, 25-D3 co-treatment” for “lenalidomide treatment”, “(0.01” for “(0”, “1 μM) alone or in combination with different concentrations of 1, 25-D3 (0 for up to 1000 nM).” for “10 μM).”
# as §5, §6
# MCF-7/VD^R cells = assay: Cell viability by neutral red assay, MCF-7/VD^R; details: Homo sapiens, MCF7, 144 h; ABT-263, 6 days, FIG. 16; read-out: IC50 (cell viability / killing)
# Source text: (§9) Non-treated cells were used as a control.
# as §9
Structure (SMILES),effect on cell growth (MCF-12A cells [1]),effect on cell viability (MCF-7 cells [2]),effect on cell viability (MCF-12A cells [3]),effect on cell growth (MCF-7 cells [4]),effect on cell viability (MDA-MB-231 cells [5]),"minimal concentration giving statistically significant inhibition of growth (MDA-MB-231 cells [6]; in the presence of 100 nM 1,25 D3, up to 7 days, FIG. 3)","effect on cell growth (MDA-MB-231 cells [6]; single agent, 0.001-10 μM, up to 6 days)",IC50 (HBL-100 cells),IC50 (MCF-7/VD^R cells),"IC50 (MDA-MB-231 cells [5]; Homo sapiens, MDA-MB-231, 144 h, ABT-263, 6 days, FIG. 16, read-out: IC50 (cell viability / killing))","inhibition at 100 µM (MDA-MB-231 cells [6]; Homo sapiens, MDA-MB-231, 144 h, single agent, 100 μM Thalidomide (highest dose), up to 6 days)"
"Nc1cccc2c1C(=O)N(C1CCC(=O)NC1=O)C2=O (stereo not shown) [Pomalidomide, 1,3-dioxo-2-(2,6-dioxopiperidin-3-yl)-4-aminoisoindoline]",do not Affect,do not Affect,do not Affect,do not Affect,do not Affect,0.1 µM,no effects,,,,
CC1(C)CCC(c2ccc(Cl)cc2)=C(CN2CCN(c3ccc(C(=O)NS(=O)(=O)c4ccc(N[C@H](CCN5CCOCC5)CSc5ccccc5)c(S(=O)(=O)C(F)(F)F)c4)cc3)CC2)C1 [ABT-263],,,,,,,,1 µM,1 µM,1 µM,
O=C1CCC(N2C(=O)c3ccccc3C2=O)C(=O)N1 (stereo not shown) [Thalidomide],do not Affect,do not Affect,do not Affect,do not Affect,do not Affect,,,,,,20%
